Data published in patent US10293148B2, “System, retainer and method of preventing and treating nosocomial infections including methicillin-resistant Staphylococcus aureus infections” (priority 2017, dated 2019).

System: S. epidermidis ATCC 12228
Test: ASTM E1153 sanitizer test on inoculated glass carriers
Format: cell-based, staphylococcus epidermidis
Method: As used herein, “CFU” refers to “colony forming unit;” the term “Log Reduction” means Log(B/A), where B=the colony form unit (CFU) number of viable test microorganisms on the control carriers after the contact time and A=the colony form unit (CFU) number of viable test microorganisms on the test carriers after the contact time. All log numbers are base-10 logarithms. […] The experiment was conducted pursuant to the American Society for Testing and Materials (ASTM) E1153, a quantitative test method designed to substantiate sanitizer claims for disinfectants on inanimate, non-porous, non-food contact surfaces. […] The commercial acne products were categorized based on their identified disinfecting ingredient. The representative test microorganism used to conduct the study was staphylococcus epidermidis (“S. epidermidis”). S. epidermidis is a gram-positive, cocci-shaped, facultative anaerobe, living mainly on the skin's surface and mucosa. S. epidermidis is one of the most common organisms contributing to nosocomial infections due to the increase in medical usage of biomaterials. Specifically, S. epidermidis infections are associated with intravascular devices (prosthetic heart valves, shunts, etc.), prosthetic joints, catheters, and postoperative wounds and the urinary tract. […] The ASTM […] protocol includes growing the test microorganism in a liquid culture medium. A series of hard, non-porous glass slides (“carriers”) are inoculated with the representative test microorganisms, and subsequently dried in an incubator. ASTM […] utilizes non-antimicrobial agents as controls to establish baselines for microbial reductions. For this study, each inoculation area was kept to a 10 mm circle to match the output tip of the […] light source. Once completely dried, the inoculated test carriers were treated with the test substances and incubated for the predetermined contact time. […] Each […] light source was set to the high power setting for testing. Control carriers were treated with a buffered saline solution and allowed to sit for the predetermined contact time. At the conclusion of the contact time, treated carriers were transferred to vessels containing neutralizing media. Dilutions of the neutralized test substance were assayed for microbial survivors using appropriate growth media. To determine microbial reduction, the effect of the test substance is compared to the effect of the control substance. […] The percent reduction is determined by evaluating the number of microorganisms on the control carriers after the contact time with the number of viable microorganisms on the test carriers after contact time.

[1] = stand-alone, no light, contact time 10 Seconds, Initial Numbers 1.4E+05
[2] = stand-alone, no light, contact time 20 Seconds, Initial Numbers 1.4E+05
[3] = stand-alone, no light, contact time 30 Seconds, Initial Numbers 1.4E+05
[4] = with Synederm Light (385-515 nm), contact time 10 Seconds, Numbers Control 2.97E+05
[5] = with Synederm Light (385-515 nm), contact time 30 Seconds, Numbers Control 2.97E+05
[6] = with Synederm Light (385-515 nm), contact time 60 Seconds, Numbers Control 2.97E+05
[7] = with Synederm Light (420-480 nm), contact time 10 Seconds, Numbers Control 2.97E+05
[8] = with Synederm Light (420-480 nm), contact time 30 Seconds, Numbers Control 2.97E+05
[9] = with Synederm Light (420-480 nm), contact time 60 Seconds, Numbers Control 2.97E+05
[10] = with Synederm Light (385-515 nm), contact time 10 Seconds, Numbers Control 2.97E+05, listed as 3.0% Hydrogen Peroxide
[11] = with Synederm Light (385-515 nm), contact time 30 Seconds, Numbers Control 2.97E+05, listed as 3.0% Hydrogen Peroxide
[12] = with Synederm Light (385-515 nm), contact time 60 Seconds, Numbers Control 2.97E+05, listed as 3.0% Hydrogen Peroxide
[13] = with Synederm Light (420-480 nm), contact time 10 Seconds, Numbers Control 2.97E+05, listed as 3.0% Hydrogen Peroxide
[14] = with Synederm Light (420-480 nm), contact time 30 Seconds, Numbers Control 2.97E+05, listed as 3.0% Hydrogen Peroxide
[15] = with Synederm Light (420-480 nm), contact time 60 Seconds, Numbers Control 2.97E+05, listed as 3.0% Hydrogen Peroxide

OO [0.3% Hydrogen Peroxide, hydrogen peroxide]
CFU/Carrier [1]: 8.3E+04 CFU/Carrier
Log10 Reduction Compared to Control [1]: 0.23 Log10
Percent Reduction Compared to Control [1]: 40.7%
CFU/Carrier [2]: 7.50E+04 CFU/Carrier
Log10 Reduction Compared to Control [2]: 0.27 Log10
Percent Reduction Compared to Control [2]: 46.4%
CFU/Carrier [3]: 1.20E+05 CFU/Carrier
Log10 Reduction Compared to Control [3]: 0.07 Log10
Percent Reduction Compared to Control [3]: 14.3%
CFU/Carrier [4]: 7.58E+4 CFU/Carrier
Log10 Reduction Compared to Control [4]: 0.59 Log10
Percent Reduction Compared to Control [4]: 74.4%
CFU/Carrier [5]: 3.66E+04 CFU/Carrier
Log10 Reduction Compared to Control [5]: 0.91 Log10
Percent Reduction Compared to Control [5]: 87.7%
CFU/Carrier [6]: 9.10E+03 CFU/Carrier
Log10 Reduction Compared to Control [6]: 1.51 Log10
Percent Reduction Compared to Control [6]: 96.9%
CFU/Carrier [7]: 1.30E+05 CFU/Carrier
Log10 Reduction Compared to Control [7]: 0.36 Log10
Percent Reduction Compared to Control [7]: 56.2%
CFU/Carrier [8]: 1.30E+05 CFU/Carrier
Log10 Reduction Compared to Control [8]: 0.36 Log10
Percent Reduction Compared to Control [8]: 56.3%
CFU/Carrier [9]: 2.28E+04 CFU/Carrier
Log10 Reduction Compared to Control [9]: 1.11 Log10
Percent Reduction Compared to Control [9]: 92.3%

OO [3% Hydrogen Peroxide, hydrogen peroxide]
CFU/Carrier [1]: 7.50E+04 CFU/Carrier
Log10 Reduction Compared to Control [1]: 0.27 Log10
Percent Reduction Compared to Control [1]: 46.4%
CFU/Carrier [2]: 8.00E+04 CFU/Carrier
Log10 Reduction Compared to Control [2]: 0.24 Log10
Percent Reduction Compared to Control [2]: 42.9%
CFU/Carrier [3]: 6.30E+04 CFU/Carrier
Log10 Reduction Compared to Control [3]: 0.35 Log10
Percent Reduction Compared to Control [3]: 55%
CFU/Carrier [10]: 5.80E+04 CFU/Carrier
Log10 Reduction Compared to Control [10]: 0.71 Log10
Percent Reduction Compared to Control [10]: 80.4%
CFU/Carrier [11]: 1.34E+03 CFU/Carrier
Log10 Reduction Compared to Control [11]: 2.34 Log10
Percent Reduction Compared to Control [11]: 99.5%
CFU/Carrier [12]: <1.00E+01 CFU/Carrier
Log10 Reduction Compared to Control [12]: >4.55 Log10
Percent Reduction Compared to Control [12]: >99.997%
CFU/Carrier [13]: 2.19E+04 CFU/Carrier
Log10 Reduction Compared to Control [13]: 1.13 Log10
Percent Reduction Compared to Control [13]: 92.6%
CFU/Carrier [14]: 6.20E+03 CFU/Carrier
Log10 Reduction Compared to Control [14]: 1.68 Log10
Percent Reduction Compared to Control [14]: 97.9%
CFU/Carrier [15]: <1.00E+01 CFU/Carrier
Log10 Reduction Compared to Control [15]: >4.55 Log10
Percent Reduction Compared to Control [15]: >99.997%
ASTM International passing criteria (3 Log10 or 99.9% reduction) (with Synederm light (385-515nm) for 60 seconds): satisfied the ASTM International passing criteria
ASTM International passing criteria (3 Log10 or 99.9% reduction) (with Synederm light (420-480nm) for 60 seconds): satisfied the ASTM International passing criteria
